Data: publication PMC10608790, “Structural Diversity and Biological Activity of Cyanopeptolins Produced by Nostoc edaphicum CCNP1411” (Marine Drugs, 2023)
Read-outs that look alike come from different tables or passages of the source.

What was measured:
elastase [1] = molecular target: T1, elastase (Sus scrofa, UniProt P00772); assay: Elastase inhibition assay; type: biochemical; settings: for IC50: read-out: E (elastase) IC50; for E (elastase) inhibition class: class symbol instead of IC50
Description: (§1) The enzyme inhibitory activity of cyanopeptolins was assayed against trypsin [108], chymotrypsin, thrombin [109], and elastase as described before. In brief, the samples were prepared and serially diluted (1 mg, 1:1—1:10,000 times) in 1% DMSO; the standard inhibitors: aprotinin (trypsin and chymotrypsin) AEBSF 4-(2-aminoethyl)benzenesulfonyl fluoride hydrochloride (thrombin), elastatinal (elastase) (all from Sigma Aldrich; St. Louis, MO, USA) were also prepared in 1% DMSO. DMSO (1%) without the addition of the enzyme served as a negative control. All tests were carried out in triplicates. After the incubation of the assay mixtures, the absorbances were measured at 405 nm (Varioskan Flash Thermo Fisher Scientific OY, Vantaa, Finland). The reduction in enzyme activity greater than 50% was considered as significant.

thrombin = thrombin (Homo sapiens, UniProt P00734); assay: Thrombin inhibition assay; type: biochemical; settings: highest concentration in the assay 45 µg × mL−1
Description: as §1

[2] = test system: human cervical cancer (HeLa) cell line; assay: MTT assay on HeLa cells; type: cell-based; settings: 200 µg × mL−1, 24 h
Description: The cytotoxic activity of the selected 17 CPs against the HeLa cervical cancer cell line (Merck KGaA, Darmstadt, Germany) was assessed with the MTT (3-(4,5-dimethylthiazole-2-yl)-2,5-diphenyltetrazolium bromide) assay according to Felczykowska et al.. HeLa cells were seeded at 4 × 10^3 cells per well in DMEM medium (Merck KGaA) supplemented with 10% (v/v) fetal bovine serum (Merck KGaA) and penicillin-streptomycin solution (1% v/v, stock solution 50 u and 0.05 mg × mL^−1, respectively; Merck KGaA). Cells were allowed to attach overnight, and then the tested compounds prepared in 1% DMSO were added. After incubation (24 h), 25 µL of MTT solution (4 mg × mL^−1; Merck KGaA) were added and then the samples were incubated for another 4 h. The formazan crystals were dissolved with 100% DMSO and absorbance was measured with Spectramax i3 (Molecular Deviecs, LLC San Jose, CA, USA). The reduction in cell viability greater than 60% was considered as significant.

breast cancer cell line = test system: breast cancer cell line; design: method as in PMID 29949853; settings: up to 500 µg × mL−1; cited from earlier work
chymotrypsin [3] = molecular target: T2, chymotrypsin (Bos taurus, UniProt P00766); design: method as in PMID 29949853; settings: results published earlier; read-out: CHY (chymotrypsin) IC50, value marked *; cited from earlier work
breast cancer cells = test system: breast cancer cells; design: method as in PMID 29405541; settings: cited from earlier work
H-460 lung cancer cells = test system: H-460 lung cancer cells; design: method as in PMID 18163584; settings: cited from earlier work
[4] = test system: neuro-2a neuroblastoma cells; design: method as in PMID 18163584; settings: cited from earlier work
[5] = test system: KB human epithelial carcinoma cells; design: method as in PMID 12762794; settings: cited from earlier work
enzymes = test system: enzymes; design: method as in PMID 20028081; settings: cited from earlier work
trypsin = molecular target: T3, trypsin (Bos taurus, UniProt P00760); assay: Trypsin inhibition assay; type: biochemical; settings: for activity against serine proteases (in words): Arg2-containing CPs lacking the side-chain, Table 1 enzymes; for TRY (trypsin) inhibition class: class symbol instead of IC50
T3 sequence (P00760 24-246): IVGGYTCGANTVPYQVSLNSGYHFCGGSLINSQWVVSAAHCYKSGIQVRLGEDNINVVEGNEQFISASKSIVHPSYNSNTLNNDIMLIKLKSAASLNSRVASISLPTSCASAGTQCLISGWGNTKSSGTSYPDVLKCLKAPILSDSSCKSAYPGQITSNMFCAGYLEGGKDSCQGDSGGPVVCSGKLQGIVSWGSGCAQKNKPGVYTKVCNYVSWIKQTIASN
Description: as §1

chymotrypsin [6] = molecular target: T2, chymotrypsin; assay: Chymotrypsin inhibition assay; type: biochemical; settings: class symbol instead of IC50
Description: as §1, with “In” for “The enzyme inhibitory activity of cyanopeptolins was assayed against trypsin [108], chymotrypsin, thrombin [109], and elastase as described before. In”

elastase [7] = molecular target: T1, elastase; design: method as in doi:10.1016/j.tet.2019.04.046; settings: cited from earlier work
HeLa S3 cells = test system: HeLa S3 cells; design: method as in doi:10.1016/j.tet.2019.04.046; settings: cited from earlier work

T1 sequence (P00772 27-266): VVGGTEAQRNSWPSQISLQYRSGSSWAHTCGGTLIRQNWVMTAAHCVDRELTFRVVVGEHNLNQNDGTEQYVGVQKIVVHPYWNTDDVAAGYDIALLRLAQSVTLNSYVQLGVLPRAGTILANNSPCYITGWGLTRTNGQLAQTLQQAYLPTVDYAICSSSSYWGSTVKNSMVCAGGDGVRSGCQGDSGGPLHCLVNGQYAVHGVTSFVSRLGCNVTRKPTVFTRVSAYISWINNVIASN

Molecule: CCCC(=O)NC(CC(=O)O)C(=O)NC1C(=O)NC(CC(C)C)C(=O)NC2CCC(O)N(C2=O)C(Cc2ccccc2)C(=O)N(C)C(Cc2ccccc2)C(=O)NC(C(C)C)C(=O)OC1C (centres unmarked) [CP 919, [Thr + Leu + Ahp + Phe + MePhe + Val]Asp + BA]
- IC50 (elastase [1]): 5.71 µM
- TRB (thrombin) inhibition class (thrombin): − (not active (inhibition below 50%))
- reduction in cell viability versus control [2]: 97.6%

Molecule: CC(=O)NC(CC(=O)O)C(=O)NC1C(=O)NC(Cc2ccc(O)cc2)C(=O)NC2CCC(O)N(C2=O)C(Cc2ccccc2)C(=O)N(C)C(Cc2ccccc2)C(=O)NC(C(C)C)C(=O)OC1C (centres unmarked) [CP 941, [Thr + Tyr + Ahp + Phe + MePhe + Val]Asp + Ac]
- E (elastase) inhibition class (elastase [1]): − (not active (inhibition below 50%))
- TRB (thrombin) inhibition class (thrombin): − (not active (inhibition below 50%))

Molecule: CCCC(=O)NC(CC(=O)O)C(=O)NC1C(=O)NC(CC(C)C)C(=O)NC2CCC(O)N(C2=O)C(Cc2ccccc2)C(=O)N(C)C(Cc2ccc(OC)cc2)C(=O)NC(C(C)C)C(=O)OC1C (centres unmarked) [CP 949, [Thr + Leu + Ahp + Phe + diMeTyr + Val]Asp + BA]
- IC50 (elastase [1]): 3.32 µM
- TRB (thrombin) inhibition class (thrombin): − (not active (inhibition below 50%))
- reduction in cell viability versus control [2]: 71.5%

Molecule: CCCC(=O)N[C@@H](CC(=O)O)C(=O)N[C@@H]1C(=O)N[C@@H](CCCNC(=N)N)C(=O)N[C@H]2CC[C@@H](O)N(C2=O)[C@@H](Cc2ccccc2)C(=O)N(C)[C@@H](Cc2ccccc2)C(=O)N[C@@H](C(C)C)C(=O)O[C@@H]1C [CP 962, [Thr + Arg + Ahp + Phe + MePhe + Val]Asp + BA]
- cytotoxic activity (in words) (breast cancer cell line): no effects were observed

Molecule: CCCC(=O)N[C@@H](CC(=O)O)C(=O)N[C@@H]1C(=O)N[C@@H](CCCNC(=N)N)C(=O)N[C@H]2CC[C@@H](O)N(C2=O)[C@@H](Cc2ccccc2)C(=O)N(C)[C@@H](Cc2ccc(O)cc2)C(=O)N[C@@H](C(C)C)C(=O)O[C@@H]1C [CP 978, [Thr + Arg + Ahp + Phe + MeTyr + Val]Asp + BA]
- reduction in cell viability versus control [2]: 62.5%
- IC50 (chymotrypsin [3]): 3.8 µM

Molecule: CCCC(=O)NC(CC(=O)O)C(=O)NC1C(=O)NC(Cc2ccccc2)C(=O)NC2CCC(O)N(C2=O)C(Cc2ccccc2)C(=O)N(C)C(Cc2ccc(OC)cc2)C(=O)NC(C(C)C)C(=O)OC1C (centres unmarked) [CP 983, [Thr + Phe + Ahp + Phe + diMeTyr + Val]Asp + BA]
- E (elastase) inhibition class (elastase [1]): − (not active (inhibition below 50%))
- TRB (thrombin) inhibition class (thrombin): − (not active (inhibition below 50%))

Molecule: CCCC(=O)N[C@@H](CC(=O)O)C(=O)N[C@@H]1C(=O)N[C@@H](Cc2ccc(O)cc2)C(=O)N[C@H]2CC[C@@H](O)N(C2=O)[C@@H](Cc2ccccc2)C(=O)N(C)[C@@H](Cc2ccc(O)cc2)C(=O)N[C@@H](C(C)C)C(=O)O[C@@H]1C [CP 985, [Thr + Tyr + Ahp + Phe + MeTyr + Val]Asp + BA]
- cytotoxic activity (in words) (breast cancer cell line): no effects were observed

Molecule: CCCCCC(=O)NC(CC(=O)O)C(=O)NC1C(=O)NC(CCCNC(=N)N)C(=O)NC2CCC(O)N(C2=O)C(Cc2ccccc2)C(=O)N(C)C(Cc2ccccc2)C(=O)NC(C(C)C)C(=O)OC1C (centres unmarked) [CP 990, [Thr + Arg + Ahp + Phe + MePhe + Val]Asp + HA]
- E (elastase) inhibition class (elastase [1]): − (not active (inhibition below 50%))
- TRB (thrombin) inhibition class (thrombin): − (not active (inhibition below 50%))

Molecule: CCCC(=O)NC(CC(=O)O)C(=O)NC1C(=O)NC(Cc2ccc(O)cc2)C(=O)NC2CCC(O)N(C2=O)C(Cc2ccccc2)C(=O)N(C)C(Cc2ccc(OC)cc2)C(=O)NC(C(C)C)C(=O)OC1C (centres unmarked) [CP 999, [Thr + Tyr + Ahp + Phe + diMeTyr + Val]Asp + BA]
- E (elastase) inhibition class (elastase [1]): − (not active (inhibition below 50%))
- TRB (thrombin) inhibition class (thrombin): − (not active (inhibition below 50%))

Molecule: C/C=C1\NC(=O)[C@@H](NC(=O)[C@@H](NC(=O)[C@H](C)NC(=O)CCC)[C@@H](C)O)[C@@H](C)OC(=O)[C@H](C(C)C)NC(=O)[C@H](Cc2ccc(O)cc2)N(C)C(=O)[C@H](Cc2ccccc2)N2C(=O)[C@H](CC[C@H]2O)NC1=O [molassamide]
- effect on elastase-mediated migration (in words) (breast cancer cells): inhibiting

Molecule: CCCC(=O)N[C@@H](CCC(N)=O)C(=O)N[C@@H]1C(=O)N[C@@H](CCCNC(N)=O)C(=O)N[C@H]2CC[C@@H](O)N(C2=O)[C@@H]([C@@H](C)CC)C(=O)N(C)[C@@H](Cc2ccc(OC)c(Br)c2)C(=O)N[C@@H](C(C)C)C(=O)O[C@@H]1C [symplocamide A]
- cytotoxic effect (in words) (H-460 lung cancer cells): affected
- cytotoxic effect (in words) [4]: affected

Molecule: CCCC(=O)N[C@H](C(=O)N[C@@H]1C(=O)N[C@@H](CC(C)C)C(=O)N[C@H]2CC[C@@H](O)N(C2=O)[C@@H](CC(C)C)C(=O)N(C)[C@@H](Cc2ccccc2)C(=O)N[C@@H](C(C)C)C(=O)O[C@@H]1C)C(C)C [tasipeptin A]
- cytotoxic effect (in words) [5]: cytotoxic

Molecule: CCCC(=O)N[C@@H]1C(=O)N[C@@H](CC(C)C)C(=O)N[C@H]2CC[C@@H](O)N(C2=O)[C@@H](CC(C)C)C(=O)N(C)[C@@H](Cc2ccccc2)C(=O)N[C@@H](C(C)C)C(=O)O[C@@H]1C [tasipeptin B]
- cytotoxic effect (in words) [5]: cytotoxic

Molecule: Micropeptin MZ771
- effect on the activity of enzymes (in words) (enzymes): did not affect the activity of enzymes

Molecule: [Thr + Arg + Ahp + Phe + MePhe + Val] [CP 778]
- activity against serine proteases (in words) (trypsin): not active
- TRY (trypsin) inhibition class (trypsin): − (not active (inhibition below 50%))
- CHY (chymotrypsin) inhibition class (chymotrypsin [6]): − (not active (inhibition below 50%))
- E (elastase) inhibition class (elastase [1]): − (not active (inhibition below 50%))
- TRB (thrombin) inhibition class (thrombin): − (not active (inhibition below 50%))

Molecule: [Thr + Arg + Ahp + Phe + diMeTyr + Val] [CP 809]
- activity against serine proteases (in words) (trypsin): not active
- TRY (trypsin) inhibition class (trypsin): − (not active (inhibition below 50%))
- CHY (chymotrypsin) inhibition class (chymotrypsin [6]): − (not active (inhibition below 50%))
- E (elastase) inhibition class (elastase [1]): − (not active (inhibition below 50%))
- TRB (thrombin) inhibition class (thrombin): − (not active (inhibition below 50%))

Molecule: [Thr + Phe + Ahp + Phe + diMeTyr + Val]Asp + HA [CP 1011]
- TRY (trypsin) inhibition class (trypsin): − (not active (inhibition below 50%))
- CHY (chymotrypsin) inhibition class (chymotrypsin [6]): − (not active (inhibition below 50%))
- E (elastase) inhibition class (elastase [1]): − (not active (inhibition below 50%))
- TRB (thrombin) inhibition class (thrombin): − (not active (inhibition below 50%))

Molecule: [Thr + Tyr + Ahp + Phe + MePhe + Val]Asp + OA [CP 1025]
- TRY (trypsin) inhibition class (trypsin): − (not active (inhibition below 50%))
- CHY (chymotrypsin) inhibition class (chymotrypsin [6]): +/− (low activity (inhibition between 50 and 60%))
- E (elastase) inhibition class (elastase [1]): − (not active (inhibition below 50%))
- TRB (thrombin) inhibition class (thrombin): − (not active (inhibition below 50%))

Molecule: kyanamide
- IC50 (elastase [7]): 0.00013 µM
- cytotoxic effect (in words) (HeLa S3 cells): moderately cytotoxic
